# Measurements: ChEMBL document CHEMBL4814007, “Structure-based discovery of SIAIS001 as an oral bioavailability ALK degrader constructed from Alectinib” (Eur J Med Chem, 2021)
# Calls of active or inactive are those of the source. The calls are words filed in the database; no cut-off is given here.
# Key:
# SR [1] = assay: Antiproliferative activity against ALK positive human SR cells; assay type: functional, cell-based
# [2] = molecular target: T1, Protein cereblon/ALK tyrosine kinase receptor (Homo sapiens, UniProt Q9UM73+Q96SW2); assay: Protac activity at CRBN/ALK in human SR cells assessed as increase in ALK degradation at 500 nM by Western blot analysis; assay type: cell-based
# Target sequence in this assay (Q96SW2 whole entry partner): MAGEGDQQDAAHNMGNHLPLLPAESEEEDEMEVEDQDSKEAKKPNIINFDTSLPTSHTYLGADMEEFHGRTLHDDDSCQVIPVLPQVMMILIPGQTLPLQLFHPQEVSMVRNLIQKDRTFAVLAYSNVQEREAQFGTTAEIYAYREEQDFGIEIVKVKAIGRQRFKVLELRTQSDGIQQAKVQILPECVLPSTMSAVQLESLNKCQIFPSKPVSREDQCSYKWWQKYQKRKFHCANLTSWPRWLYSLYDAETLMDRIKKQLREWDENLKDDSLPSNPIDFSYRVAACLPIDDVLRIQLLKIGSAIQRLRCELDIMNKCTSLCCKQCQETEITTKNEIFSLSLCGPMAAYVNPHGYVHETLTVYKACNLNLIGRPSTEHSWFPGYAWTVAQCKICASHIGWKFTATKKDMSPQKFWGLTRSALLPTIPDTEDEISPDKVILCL
# Target sequence in this assay (Q9UM73 19-1620 limits assumed): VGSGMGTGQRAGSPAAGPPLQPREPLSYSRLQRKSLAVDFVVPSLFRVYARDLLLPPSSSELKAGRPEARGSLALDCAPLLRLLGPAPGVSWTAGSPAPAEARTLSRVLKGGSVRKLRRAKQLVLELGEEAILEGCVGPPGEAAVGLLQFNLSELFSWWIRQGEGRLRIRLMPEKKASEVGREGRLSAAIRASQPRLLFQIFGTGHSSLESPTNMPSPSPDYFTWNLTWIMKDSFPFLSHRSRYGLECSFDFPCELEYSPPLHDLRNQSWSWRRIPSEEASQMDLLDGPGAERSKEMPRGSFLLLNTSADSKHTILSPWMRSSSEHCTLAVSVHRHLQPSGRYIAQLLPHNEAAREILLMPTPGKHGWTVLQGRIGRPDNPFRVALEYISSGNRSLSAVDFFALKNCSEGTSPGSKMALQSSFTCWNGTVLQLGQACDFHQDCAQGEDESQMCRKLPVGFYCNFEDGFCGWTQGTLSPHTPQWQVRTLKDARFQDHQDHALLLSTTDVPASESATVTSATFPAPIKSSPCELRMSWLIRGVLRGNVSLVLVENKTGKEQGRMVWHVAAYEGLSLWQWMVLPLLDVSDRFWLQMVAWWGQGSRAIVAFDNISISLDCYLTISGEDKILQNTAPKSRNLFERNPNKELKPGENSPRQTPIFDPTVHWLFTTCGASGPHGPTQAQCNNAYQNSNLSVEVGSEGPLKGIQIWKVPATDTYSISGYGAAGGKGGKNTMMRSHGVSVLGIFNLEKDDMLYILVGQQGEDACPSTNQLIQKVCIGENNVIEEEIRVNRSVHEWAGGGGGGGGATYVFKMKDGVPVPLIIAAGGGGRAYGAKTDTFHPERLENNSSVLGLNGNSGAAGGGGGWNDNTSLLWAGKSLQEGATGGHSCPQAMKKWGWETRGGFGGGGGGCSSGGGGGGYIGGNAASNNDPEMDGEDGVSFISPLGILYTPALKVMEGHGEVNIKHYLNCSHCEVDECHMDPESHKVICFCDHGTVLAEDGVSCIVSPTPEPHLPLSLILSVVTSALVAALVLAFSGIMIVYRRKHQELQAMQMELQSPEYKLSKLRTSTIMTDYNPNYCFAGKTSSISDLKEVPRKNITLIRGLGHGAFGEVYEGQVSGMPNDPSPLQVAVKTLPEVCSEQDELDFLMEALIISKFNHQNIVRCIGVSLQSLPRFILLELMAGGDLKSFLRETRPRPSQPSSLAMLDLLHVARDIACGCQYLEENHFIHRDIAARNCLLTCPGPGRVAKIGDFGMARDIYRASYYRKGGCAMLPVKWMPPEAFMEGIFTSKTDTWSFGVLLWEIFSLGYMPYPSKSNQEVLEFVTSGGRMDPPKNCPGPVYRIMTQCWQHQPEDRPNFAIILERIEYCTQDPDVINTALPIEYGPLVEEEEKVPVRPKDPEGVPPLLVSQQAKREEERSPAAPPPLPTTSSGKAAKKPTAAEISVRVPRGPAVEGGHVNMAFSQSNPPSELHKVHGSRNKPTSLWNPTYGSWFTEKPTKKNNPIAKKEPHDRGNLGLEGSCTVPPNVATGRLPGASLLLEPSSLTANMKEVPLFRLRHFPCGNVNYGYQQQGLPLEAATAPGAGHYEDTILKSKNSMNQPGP
# [3] = molecular target: T1, Protein cereblon/ALK tyrosine kinase receptor; assay: Protac activity at CRBN/ALK in human SR cells assessed as protein abundance at 5 nM by Western blot analysis (reference value: 1); assay type: cell-based
# Target sequence in this assay (Q96SW2 whole entry partner): as the sequence (Q96SW2 whole entry partner) above
# Target sequence in this assay (Q9UM73 19-1620 limits assumed): as the sequence (Q9UM73 19-1620 limits assumed) above
# SR [4] = assay: Potency index, ratio of alectinib IC50 to test compound IC50 for antiproliferative activity against ALK positive human SR cells; assay type: functional
# [5] = molecular target: T1, Protein cereblon/ALK tyrosine kinase receptor; assay: Protac activity at CRBN/ALK in human SR cells assessed as induction of ALK degradation by Western blot analysis; assay type: cell-based
# Target sequence in this assay (Q9UM73 whole entry): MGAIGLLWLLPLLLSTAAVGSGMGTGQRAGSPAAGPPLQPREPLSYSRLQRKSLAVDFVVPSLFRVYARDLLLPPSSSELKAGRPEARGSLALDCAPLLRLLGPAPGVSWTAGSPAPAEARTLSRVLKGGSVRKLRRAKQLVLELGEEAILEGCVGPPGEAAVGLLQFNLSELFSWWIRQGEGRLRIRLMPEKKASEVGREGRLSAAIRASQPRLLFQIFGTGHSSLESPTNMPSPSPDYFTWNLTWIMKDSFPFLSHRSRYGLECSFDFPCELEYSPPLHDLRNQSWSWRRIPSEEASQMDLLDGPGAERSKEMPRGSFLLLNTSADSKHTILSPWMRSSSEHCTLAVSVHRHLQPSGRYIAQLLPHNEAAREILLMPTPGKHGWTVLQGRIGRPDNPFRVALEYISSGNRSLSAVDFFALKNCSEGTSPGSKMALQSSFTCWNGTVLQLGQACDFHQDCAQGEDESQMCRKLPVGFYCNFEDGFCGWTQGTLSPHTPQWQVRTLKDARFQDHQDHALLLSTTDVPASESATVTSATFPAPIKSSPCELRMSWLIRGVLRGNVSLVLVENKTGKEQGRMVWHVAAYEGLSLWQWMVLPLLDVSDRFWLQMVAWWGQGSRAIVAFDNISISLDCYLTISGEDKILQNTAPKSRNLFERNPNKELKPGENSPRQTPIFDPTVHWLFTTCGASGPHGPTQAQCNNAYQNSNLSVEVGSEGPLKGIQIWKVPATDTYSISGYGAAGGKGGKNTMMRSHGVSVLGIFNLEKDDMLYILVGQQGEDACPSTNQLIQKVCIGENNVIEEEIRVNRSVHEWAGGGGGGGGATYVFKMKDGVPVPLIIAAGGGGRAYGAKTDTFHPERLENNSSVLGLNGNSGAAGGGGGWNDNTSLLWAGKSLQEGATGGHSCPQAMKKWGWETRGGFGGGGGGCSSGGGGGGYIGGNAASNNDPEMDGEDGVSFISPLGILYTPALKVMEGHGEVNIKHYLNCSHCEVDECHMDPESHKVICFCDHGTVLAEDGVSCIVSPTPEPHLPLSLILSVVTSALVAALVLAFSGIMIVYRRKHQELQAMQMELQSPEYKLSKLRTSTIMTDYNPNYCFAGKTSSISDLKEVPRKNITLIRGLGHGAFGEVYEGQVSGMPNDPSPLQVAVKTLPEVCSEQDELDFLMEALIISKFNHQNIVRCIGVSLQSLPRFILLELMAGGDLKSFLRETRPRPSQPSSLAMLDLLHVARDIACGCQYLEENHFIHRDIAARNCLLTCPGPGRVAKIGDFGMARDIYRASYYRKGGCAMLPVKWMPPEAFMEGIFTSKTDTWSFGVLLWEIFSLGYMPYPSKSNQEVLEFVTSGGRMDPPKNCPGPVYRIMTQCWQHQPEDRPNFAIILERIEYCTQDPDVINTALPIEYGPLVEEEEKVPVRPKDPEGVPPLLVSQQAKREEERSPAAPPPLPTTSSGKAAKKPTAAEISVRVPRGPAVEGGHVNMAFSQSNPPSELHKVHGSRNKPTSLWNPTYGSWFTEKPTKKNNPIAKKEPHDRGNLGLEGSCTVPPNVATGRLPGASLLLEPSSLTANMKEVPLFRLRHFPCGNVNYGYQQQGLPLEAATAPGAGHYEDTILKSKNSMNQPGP
# Target sequence in this assay (Q96SW2 whole entry): as the sequence (Q96SW2 whole entry partner) above
# [6] = molecular target: T1, Protein cereblon/ALK tyrosine kinase receptor; assay: Protac activity at CRBN/ALK in human SR cells assessed as induction of ALK degradation at 0.05 to 500 nM by Western blot analysis relative to control; assay type: cell-based; details: dose 0.05-500 nM
# Target sequence in this assay (Q96SW2 whole entry partner): as above
# Target sequence in this assay (Q9UM73 19-1620 limits assumed): as the sequence (Q9UM73 19-1620 limits assumed) above
# SR [7] = assay: Potency index, ratio of ceritinib IC50 to test compound IC50 for antiproliferative activity against ALK positive human SR cells; assay type: functional
# [8] = molecular target: T1, Protein cereblon/ALK tyrosine kinase receptor; assay: Protac activity at CRBN/ALK in human SR cells assessed as increase in ALK degradation at 50 nM in presence of MLN4924/MG132 by Western blot analysis; assay type: cell-based
# Target sequence in this assay (Q96SW2 whole entry partner): as the sequence (Q96SW2 whole entry partner) above
# Target sequence in this assay (Q9UM73 19-1620 limits assumed): as the sequence (Q9UM73 19-1620 limits assumed) above
# [9] = molecular target: T2, ALK tyrosine kinase receptor (Homo sapiens, UniProt Q9UM73); assay: Inhibition of ALK phosphorylation in human SR cells at 0.5 nM; assay type: cell-based
# Target sequence in this assay (Q9UM73 19-1620 limits assumed): as above
# [10] = molecular target: T2, ALK tyrosine kinase receptor; assay: Inhibition of ALK in human SR cells assessed as reduction in STAT3 phosphorylation at 50 nM; assay type: cell-based
# Target sequence in this assay (Q9UM73 19-1620 limits assumed): as above
# [11] = molecular target: T2, ALK tyrosine kinase receptor; assay: Inhibition of ALK (unknown origin)
# Target sequence in this assay (Q9UM73 whole entry): as the sequence (Q9UM73 whole entry) above
# SR [12] = assay: Induction of cell cycle arrest in human SR cells assessed as increase in accumulation at G1/S phase at 100 nM incubated for 24 hrs; assay type: functional, cell-based
# SR [13] = assay: Induction of cell cycle arrest in human SR cells assessed as increase in accumulation at S phase at 100 nM incubated for 24 hrs; assay type: functional, cell-based
# [14] = molecular target: T1, Protein cereblon/ALK tyrosine kinase receptor; assay: Protac activity at CRBN/ALK in human SR cells assessed as increase in ALK degradation at 200 nM by Western blot analysis relative to control; assay type: cell-based
# Target sequence in this assay (Q96SW2 whole entry partner): as the sequence (Q96SW2 whole entry partner) above
# Target sequence in this assay (Q9UM73 19-1620 limits assumed): as the sequence (Q9UM73 19-1620 limits assumed) above
# [15] = molecular target: T1, Protein cereblon/ALK tyrosine kinase receptor; assay: Protac activity at CRBN/ALK in human SR cells assessed as increase in ALK degradation at 50 nM in presence of MG132 by Western blot analysis; assay type: cell-based
# Target sequence in this assay (Q96SW2 whole entry partner): as the sequence (Q96SW2 whole entry partner) above
# Target sequence in this assay (Q9UM73 19-1620 limits assumed): as the sequence (Q9UM73 19-1620 limits assumed) above
# [16] = molecular target: T1, Protein cereblon/ALK tyrosine kinase receptor; assay: Protac activity at CRBN/ALK in human SR cells assessed as protein abundance at 0.05 nM by Western blot analysis (reference value: 1); assay type: cell-based
# [17] = molecular target: T1, Protein cereblon/ALK tyrosine kinase receptor; assay: Protac activity at CRBN/ALK in human SR cells assessed as protein abundance at 0.5 nM by Western blot analysis (reference value: 1); assay type: cell-based
# [18] = molecular target: T1, Protein cereblon/ALK tyrosine kinase receptor; assay: Protac activity at CRBN/ALK in human SR cells assessed as protein abundance at 50 nM by Western blot analysis (reference value: 1); assay type: cell-based
# [19] = molecular target: T1, Protein cereblon/ALK tyrosine kinase receptor; assay: Protac activity at CRBN/ALK in human SR cells assessed as protein abundance at 500 nM by Western blot analysis (reference value: 1); assay type: cell-based
# [20] = molecular target: T3, von Hippel-Lindau disease tumor suppressor/ALK tyrosine kinase receptor (Homo sapiens) (UniProt Q9UM73+P40337); assay: Protac activity at VHL1/ALK in human SR cells assessed as increase in ALK degradation at 500 nM by Western blot analysis; assay type: cell-based
# [21] = molecular target: T3, von Hippel-Lindau disease tumor suppressor/ALK tyrosine kinase receptor (Homo sapiens); assay: Protac activity at VHL/ALK in human SR cells assessed as protein abundance at 0.05 nM by Western blot analysis (reference value: 1); assay type: cell-based
# [22] = molecular target: T3, von Hippel-Lindau disease tumor suppressor/ALK tyrosine kinase receptor (Homo sapiens); assay: Protac activity at VHL/ALK in human SR cells assessed as protein abundance at 0.5 nM by Western blot analysis (reference value: 1); assay type: cell-based
# [23] = molecular target: T3, von Hippel-Lindau disease tumor suppressor/ALK tyrosine kinase receptor (Homo sapiens); assay: Protac activity at VHL/ALK in human SR cells assessed as protein abundance at 5 nM by Western blot analysis (reference value: 1); assay type: cell-based
# [24] = molecular target: T3, von Hippel-Lindau disease tumor suppressor/ALK tyrosine kinase receptor (Homo sapiens); assay: Protac activity at VHL/ALK in human SR cells assessed as protein abundance at 50 nM by Western blot analysis (reference value: 1); assay type: cell-based
# [25] = molecular target: T3, von Hippel-Lindau disease tumor suppressor/ALK tyrosine kinase receptor (Homo sapiens); assay: Protac activity at VHL/ALK in human SR cells assessed as protein abundance at 500 nM by Western blot analysis (reference value: 1); assay type: cell-based
# [26] = Cmax in rat at 2 mg/kg, ip; assay type: ADME, organism-based; design: route intraperitoneal, dose 2 mg/kg; details: in vivo
# [27] = Plasma concentration in rat at 10 mg/kg, po measured after 4 hrs; assay type: ADME, organism-based
# [28] = Oral bioavailability in rat at 10 mg/kg; assay type: ADME, organism-based; details: in vivo
# [29] = Toxicity in rat at 10 mg/kg, po assessed as adverse effect; assay type: organism-based; details: in vivo
# [30] = Stability in liver microsomes (unknown origin); assay type: ADME, Microsome
# T3 sequence (P40337 whole entry partner): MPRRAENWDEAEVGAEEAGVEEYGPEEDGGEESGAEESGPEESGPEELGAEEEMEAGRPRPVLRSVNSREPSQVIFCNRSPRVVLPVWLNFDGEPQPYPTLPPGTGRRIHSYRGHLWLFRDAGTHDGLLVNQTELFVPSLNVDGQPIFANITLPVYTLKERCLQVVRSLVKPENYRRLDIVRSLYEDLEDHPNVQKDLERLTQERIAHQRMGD
# T3 sequence (Q9UM73 19-1620 limits assumed): as the sequence (Q9UM73 19-1620 limits assumed) above
Compound,IC50 (SR [1]) [nM],Activity [2],Activity [3],DC50 [5] [nM],Emax [6] [%],Ratio (SR [7]),Activity [8],inhibition [9],inhibition [10],IC50 [11] [nM],Activity (SR [12]),Activity (SR [13]),Activity [15],Activity [16],Activity [17],Activity [18],Activity [19],also measured
CCc1cc2c(cc1N1CCC(N3CCN(C(=O)CNc4cccc5c4CN(C4CCC(=O)NC4=O)C5=O)CC3)CC1)C(C)(C)c1[nH]c3cc(C#N)ccc3c1C2=O (stereo not drawn),0.5,Active,0.48,6300,87.7,5,inactive,inactive,inactive,4.7,Active,inactive,inactive,0.9,0.67,0.24,0.27,Ratio (SR [4]): 6; Activity [14]: > 50%
"CCc1cc2c(cc1N1CCC(N3CCN(C(=O)CCCCC(=O)NC(C(=O)N4C[C@H](O)C[C@H]4C(=O)NCc4ccc(-c5scnc5C)cc4)C(C)(C)C)CC3)CC1)C(C)(C)c1[nH]c3cc(C#N)ccc3c1C2=O (single isomer, unassigned)",32.5,–,–,–,–,–,–,–,–,–,–,–,–,–,–,–,–,Activity [20]: Active; Activity [21]: 0.96; Activity [22]: 1.14; Activity [23]: 1.04; Activity [24]: 0.93; Activity [25]: 0.43
CCc1cc2c(cc1N1CCC(N3CCN(CCCC#Cc4cccc5c4CN(C4CCC(=O)NC4=O)C5=O)CC3)CC1)C(C)(C)c1[nH]c3cc(C#N)ccc3c1C2=O (stereo not drawn),0.9,Active,0.56,3900,70.3,5,inactive,Active,Active,3.3,Active,inactive,inactive,1.03,0.92,0.37,0.37,Cmax [26]: 83.5 ng/mL; concentration at 4 h [27]: 100 ng/mL; bioavailability [28]: 16%; Activity [29]: Non-Toxic; Stabilty [30]: Stable
